Assay results from US10646580B2, “Oligosaccharide conjugates for targeting bacteria and uses related thereto” (priority 2011, dated 2020).
In brackets after ≈: the same amount, converted by molar mass.

Test system: Escherichia coli (ATCC 33456)
Assay: Ampicillin IC50 in E. coli
Format: cell-based
Conditions: ATCC33456
Description: The ability of antibiotics to inhibit the uptake of MDP-1 in Escherichia coli was investigated. Escherichia coli (ATCC 33456) were grown in LB medium at 37° C. under 5% CO2 to an OD600=0.5, as described above. […] Escherichia coli were incubated with ampicillin for 1 hour at 37° C. under 5% CO2, and 60 μL of MDP-1 stock solutions (1 mM in PBS) were added, generating a 20 μM MDP concentration. Escherichia coli were incubated with MDPs in the presence of ampicillin for 1 hour at 37° C. under 5% CO2 in an incubator shaker. At this stage, a small aliquot of the bacterial culture was plated to determine the CFUs of bacteria in the MDP solution. Escherichia coli were harvested by centrifuging and the resulting pellets were washed 3 times with 10 mL PBS. The intracellular fluorescence of the bacteria was determined as described in FIG. 3a.

IC50: 3 µg/mL (≈ 8.59 µM)
SMILES: CC1(C)S[C@@H]2[C@H](NC(=O)[C@H](N)c3ccccc3)C(=O)N2[C@H]1C(=O)O [ampicillin]
